Experiments:
[1] = tested on: T1, Octopus GST-σ; test: GSH-CDNB conjugation, absorbance […] nm; type: biochemical, Octopus vulgaris; conditions: GSH 10 mM; apparent; read-out: Km,CDNB (mM) ^c
T1 construct: gene GST-sigma

[2] = target: Wild-type S-crystallin (OctS4) of Octopus vulgaris (Octopus vulgaris); test: AUC; sedimentation velocity, 20 °C, 42,000 rpm, protein 0.025–1.0 mg/ml in 50 mM phosphate, pH 6.5; continuous c(M) distribution by SEDFIT

| stoichiometry N [2] | Molecule | Km [1] |
| --- | --- | --- |
|  | O=[N+]([O-])c1ccc(Cl)c([N+](=O)[O-])c1 [CDNB, 1-chloro-2,4-dinitrobenzene] | 0.47 ± 0.04 mM |
| 2 | Wild-type S-crystallin (OctS4) of Octopus vulgaris (natural protein) |  |

Reference: publication PMC4976375, “Structure of a Highly Active Cephalopod S-crystallin Mutant: New Molecular Evidence for Evolution from an Active Enzyme into Lens-Refractive Protein” (Scientific Reports, 2016)
